# Laboratory results taken from ChEMBL document CHEMBL1201862, “PubChem BioAssay data set” (2004).
#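 Interpolation was linear, between the two tested concentrations surrounding the appropriate level; five concentrations were tested over 48 hours in 96-well plates. GI50 marks 50% less growth.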 Active and inactive are the calls of the source. Cut-off read from the data, not from the text of the source: active = GI50 up to about 1.1 µM and inactive = higher.
# Legend:
# Assay in all cases: NCI tumour cell line growth inhibition, 48 h
# [1] = test system: DMS-273
# [2] = test system: DMS-114
# [3] = test system: SNB-78
# [4] = test system: HOP-18
# [5] = test system: RXF 631
# [6] = test system: LXFL 529
# [7] = test system: KM-20L2
# [8] = test system: XF498
# [9] = test system: M19-MEL
SMILES,GI50 [1],GI50 [2],GI50 [3],GI50 [4],GI50 [5],GI50 [6],GI50 [7],GI50 [8],GI50 [9]
Cc1cc(N(CCC#N)S(=O)(=O)c2ccccc2)ccc1C=O,> 100 µM (inactive),> 100 µM (inactive),> 100 µM (inactive),> 100 µM (inactive),> 100 µM (inactive),> 100 µM (inactive),> 100 µM (inactive),,
NC(=O)C(=O)C1C(=O)N(c2ccccc2)N=C1N (centres undefined),> 100 µM (inactive),,> 100 µM (inactive),,,> 100 µM (inactive),> 100 µM (inactive),> 100 µM (inactive),
CN(C)CC1(C)CC/C(=C\c2ccc3c(c2)OCO3)C1=O (centres undefined),> 100 µM (inactive),57.4 µM (inactive),> 100 µM (inactive),> 100 µM (inactive),,> 100 µM (inactive),3.72 µM (inactive),> 100 µM (inactive),> 100 µM (inactive)
CC(C)(C)NCC(COc1ccc([N+](=O)[O-])cc1)OP(c1ccccc1)c1ccccc1 (centres undefined),29.8 µM (inactive),23 µM (inactive),25.9 µM (inactive),,,19.3 µM (inactive),36.4 µM (inactive),22.5 µM (inactive),40.6 µM (inactive)
C[C@H](N)C(=O)N[C@@H]1[C@H]2C(=C(O)C[C@@H](O)[C@@H]2O)C(=O)O[C@]1(C)C(Cl)Cl [BACTOBOLIN],0.327 µM (active),0.178 µM (active),0.281 µM (active),0.57 µM (active),0.289 µM (active),0.108 µM (active),0.262 µM (active),0.0938 µM (active),0.232 µM (active)
CC(C)C(C(=O)O)N(CC1(O)OCC(O)C(O)C1O)N=O (centres undefined),> 100 µM (inactive),> 100 µM (inactive),> 100 µM (inactive),,> 100 µM (inactive),> 100 µM (inactive),> 100 µM (inactive),> 100 µM (inactive),> 100 µM (inactive)
NC(N)=NN/C(=C1/N=c2ccc([N+](=O)[O-])cc2=NC1=O)C(O)c1ccco1 (centres undefined),> 100 µM (inactive),27.5 µM (inactive),> 100 µM (inactive),> 100 µM (inactive),,92.7 µM (inactive),> 100 µM (inactive),> 100 µM (inactive),> 100 µM (inactive)
CNC(C)(C)Cc1ccc(Cl)cc1,,> 100 µM (inactive),,,,> 100 µM (inactive),> 100 µM (inactive),34.7 µM (inactive),> 100 µM (inactive)
CN1NC(c2ccccc2)=C(C#N)C(=O)CC1c1ccc(F)cc1 (centres undefined),> 100 µM (inactive),> 100 µM (inactive),> 100 µM (inactive),> 100 µM (inactive),> 100 µM (inactive),> 100 µM (inactive),,> 100 µM (inactive),
CC(C)OC(=O)c1cccnc1/C=N/O,> 100 µM (inactive),> 100 µM (inactive),> 100 µM (inactive),,,> 100 µM (inactive),> 100 µM (inactive),> 100 µM (inactive),> 100 µM (inactive)
Cc1[nH]c2ccccc2c1C1Cc2ccccc2N1C(=O)/C(Cl)=C/c1ccccc1 (centres undefined),> 100 µM (inactive),> 20.9 µM (inactive),23.3 µM (inactive),66.2 µM (inactive),> 100 µM (inactive),> 100 µM (inactive),> 100 µM (inactive),12.4 µM (inactive),> 100 µM (inactive)
CCC1CCCCN1CC(C(C)=O)C(c1ccccc1)c1c(O)c2ccccc2oc1=O (centres undefined),> 100 µM (inactive),> 100 µM (inactive),> 100 µM (inactive),,> 100 µM (inactive),,> 100 µM (inactive),> 100 µM (inactive),> 100 µM (inactive)
CSc1nc2c(nc(N)n2C2OC(COC(C)=O)C(OC(C)=O)C(OC(C)=O)C2OC(C)=O)c(=O)n1C (centres undefined),,> 100 µM (inactive),> 100 µM (inactive),> 100 µM (inactive),> 100 µM (inactive),> 100 µM (inactive),> 100 µM (inactive),> 100 µM (inactive),
CC(=O)OC1COC(n2c(=S)n(-c3ccc(C)cc3)c(=O)c3ccccc32)C(OC(C)=O)C1OC(C)=O (centres undefined),> 100 µM (inactive),> 100 µM (inactive),> 100 µM (inactive),> 100 µM (inactive),68.9 µM (inactive),58.3 µM (inactive),> 100 µM (inactive),> 100 µM (inactive),> 100 µM (inactive)
NC1CCC2(O)c3ccccc3C2C1 (centres undefined),> 100 µM (inactive),> 100 µM (inactive),> 100 µM (inactive),> 100 µM (inactive),,> 100 µM (inactive),> 100 µM (inactive),> 100 µM (inactive),> 100 µM (inactive)
Cc1[nH]c2ccccc2c1-c1n[nH]c(=O)c2ccccc12,8.79 µM (inactive),14.8 µM (inactive),46.8 µM (inactive),,13 µM (inactive),21.6 µM (inactive),25.2 µM (inactive),27.1 µM (inactive),29 µM (inactive)
CC(=O)OCCOCNC(=S)N/N=C/c1cc(Br)cs1,> 100 µM (inactive),> 100 µM (inactive),> 100 µM (inactive),> 100 µM (inactive),> 100 µM (inactive),> 100 µM (inactive),> 100 µM (inactive),> 100 µM (inactive),> 100 µM (inactive)
S=C1ON=C(c2ccccc2)/C1=C/Nc1ccccc1,> 100 µM (inactive),> 100 µM (inactive),> 100 µM (inactive),< 0.01 µM (active),,> 100 µM (inactive),,> 100 µM (inactive),
COc1ccc(CC2C(=O)NC(C)C(=O)N(C)C3Cc4ccc(cc4)Oc4cc(ccc4O)CC(C(=O)NC(C)C(=O)NC(C)C(=O)N2C)N(C)C3=O)cc1 (centres undefined),0.0175 µM (active),,0.0175 µM (active),,,,0.0175 µM (active),0.0175 µM (active),0.0175 µM (active)
Clc1ccc2c(c1)-c1c3c(nn1-c1ccccc1)-c1ccccc1SC3O2 (centres undefined),> 100 µM (inactive),56.1 µM (inactive),> 100 µM (inactive),> 100 µM (inactive),,> 100 µM (inactive),> 100 µM (inactive),> 100 µM (inactive),> 100 µM (inactive)
CCOC(=O)/C=C1\CCCC12OCCO2,53.5 µM (inactive),85.5 µM (inactive),> 100 µM (inactive),> 100 µM (inactive),,> 100 µM (inactive),> 100 µM (inactive),,> 100 µM (inactive)
Cc1ccc(/N=N/c2c(C)nn(-c3ccccc3)c2-c2ccccc2)c(Br)c1,,,,> 100 µM (inactive),34.4 µM (inactive),87.9 µM (inactive),> 100 µM (inactive),,55.1 µM (inactive)
CN(C)CCN1C(=O)c2cccc3cc(N)cc(c23)C1=O [AMONAFIDE],2.07 µM (inactive),4.21 µM (inactive),,5.2 µM (inactive),,,3.99 µM (inactive),0.946 µM (active),4.19 µM (inactive)
COc1cc(/C=C2/C(=O)N(C(=O)OCC(C)C)C(Cc3cc(OC)c(OC)c(C)c3OC)C(=O)N2Cc2ccccc2)c(OC)c(C)c1OC (centres undefined),> 100 µM (inactive),23.1 µM (inactive),,> 100 µM (inactive),> 100 µM (inactive),5.57 µM (inactive),> 100 µM (inactive),,> 100 µM (inactive)
N#C/C(=C1\SC(C(N)=O)=C(N)N1c1ccccc1)c1nc2ccccc2[nH]1,> 100 µM (inactive),> 100 µM (inactive),44.4 µM (inactive),,,> 100 µM (inactive),> 100 µM (inactive),> 100 µM (inactive),> 100 µM (inactive)
